The target in one test is eGFP-53BP1 (Homo sapiens, UniProt Q12888). The test is described as follows: eGFP-53BP1 foci count per nucleus by confocal microscopy, DIvA cells. Type of test: cell-based.
The target in test [1] is 53BP1 TTD (tandem tudor domain) (Homo sapiens, UniProt Q12888). Description: SPR, OneStep gradient injections, kinetic fit with mass transport. Type of test: binding.

The results in this text go back to doi:10.1101/2024.05.30.596757v1 (biorxiv, 2024).

Each structure is given as a SMILES string.

53BP1 TTD (tandem tudor domain), sequence (Q12888 1483-1606): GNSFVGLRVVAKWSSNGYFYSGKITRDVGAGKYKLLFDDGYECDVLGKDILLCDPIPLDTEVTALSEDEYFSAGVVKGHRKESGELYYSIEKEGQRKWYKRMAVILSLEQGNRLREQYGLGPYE
eGFP-53BP1, sequence (Q12888 whole entry, the tested form may be a part): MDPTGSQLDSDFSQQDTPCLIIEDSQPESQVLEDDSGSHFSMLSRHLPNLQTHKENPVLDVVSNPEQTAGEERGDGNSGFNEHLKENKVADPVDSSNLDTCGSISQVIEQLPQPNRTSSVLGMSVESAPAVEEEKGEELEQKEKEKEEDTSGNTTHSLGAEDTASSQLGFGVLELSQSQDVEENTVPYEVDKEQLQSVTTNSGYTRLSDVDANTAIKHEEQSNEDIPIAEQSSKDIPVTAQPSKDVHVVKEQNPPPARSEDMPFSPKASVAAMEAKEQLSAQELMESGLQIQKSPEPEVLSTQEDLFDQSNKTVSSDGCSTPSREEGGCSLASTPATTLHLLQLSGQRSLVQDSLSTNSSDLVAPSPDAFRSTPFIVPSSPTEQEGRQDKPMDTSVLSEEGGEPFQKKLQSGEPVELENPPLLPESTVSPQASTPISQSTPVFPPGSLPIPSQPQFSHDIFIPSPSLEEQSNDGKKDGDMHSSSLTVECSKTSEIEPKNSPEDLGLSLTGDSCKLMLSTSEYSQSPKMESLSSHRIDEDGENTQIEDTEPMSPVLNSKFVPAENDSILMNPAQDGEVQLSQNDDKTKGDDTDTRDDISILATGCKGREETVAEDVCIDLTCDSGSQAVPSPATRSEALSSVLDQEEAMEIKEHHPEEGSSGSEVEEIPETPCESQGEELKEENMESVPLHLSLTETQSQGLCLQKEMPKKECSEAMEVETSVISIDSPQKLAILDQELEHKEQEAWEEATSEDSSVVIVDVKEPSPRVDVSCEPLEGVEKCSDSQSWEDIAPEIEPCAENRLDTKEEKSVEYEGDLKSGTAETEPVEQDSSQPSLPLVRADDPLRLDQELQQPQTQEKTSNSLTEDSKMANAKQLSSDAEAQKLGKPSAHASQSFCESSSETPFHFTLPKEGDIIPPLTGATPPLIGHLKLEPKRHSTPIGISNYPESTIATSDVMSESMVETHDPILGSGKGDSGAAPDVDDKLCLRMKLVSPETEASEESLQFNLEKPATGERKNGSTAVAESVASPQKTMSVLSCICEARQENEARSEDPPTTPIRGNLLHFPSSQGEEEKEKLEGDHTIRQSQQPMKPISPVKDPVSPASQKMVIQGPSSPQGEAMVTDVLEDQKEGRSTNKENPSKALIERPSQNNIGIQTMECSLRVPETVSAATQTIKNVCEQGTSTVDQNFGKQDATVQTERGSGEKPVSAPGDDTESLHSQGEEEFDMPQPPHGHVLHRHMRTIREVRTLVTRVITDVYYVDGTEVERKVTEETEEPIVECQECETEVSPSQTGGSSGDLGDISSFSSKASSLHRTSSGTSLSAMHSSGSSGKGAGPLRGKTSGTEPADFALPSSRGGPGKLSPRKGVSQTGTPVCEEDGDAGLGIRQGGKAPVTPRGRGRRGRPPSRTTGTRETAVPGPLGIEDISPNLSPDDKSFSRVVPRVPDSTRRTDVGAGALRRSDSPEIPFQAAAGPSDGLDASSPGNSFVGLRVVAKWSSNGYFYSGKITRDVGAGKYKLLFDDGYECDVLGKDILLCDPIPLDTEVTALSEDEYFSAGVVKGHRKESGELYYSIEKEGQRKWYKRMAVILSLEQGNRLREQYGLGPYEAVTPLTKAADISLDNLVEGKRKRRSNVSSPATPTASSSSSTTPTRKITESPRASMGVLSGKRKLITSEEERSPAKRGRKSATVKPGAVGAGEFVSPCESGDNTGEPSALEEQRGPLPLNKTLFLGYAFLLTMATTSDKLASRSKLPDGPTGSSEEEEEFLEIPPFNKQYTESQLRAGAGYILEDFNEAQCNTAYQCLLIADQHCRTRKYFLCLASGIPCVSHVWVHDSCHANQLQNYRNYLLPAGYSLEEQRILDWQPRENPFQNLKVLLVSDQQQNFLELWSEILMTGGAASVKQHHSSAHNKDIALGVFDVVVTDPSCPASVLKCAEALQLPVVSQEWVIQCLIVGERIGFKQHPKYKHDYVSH

In turn, `CCN1CCN(C(=O)c2ccc(Cn3nc(C)cc3C)cc2)CC1` [EoHR, (4-((3,5-dimethyl-1H-pyrazol-1-yl)methyl)phenyl)(4-ethylpiperazin-1-yl)methanone] had an IC50 on eGFP-53BP1 of 13 ± 5 µM. Moreover, the Kd in test [1] is 14 µM.

One may read the IC50 as the concentration needed to halve the response being measured. Broadly, the Kd is the free concentration of one partner at which half of the binding sites on the other are occupied at equilibrium, for simple one-to-one binding. High values mean lower affinity, low ones higher affinity.
